Measurements published in patent US20080139558A1, “QUINOLONES USEFUL AS INDUCIBLE NITRIC OXIDE SYNTHASE INHIBITORS” (KALYPSYS, INC., priority 2006, published 2008).

Target: T1, human iNOS (Homo sapiens, UniProt P35228)
T1 construct: expressed in transfected cells; host or cells: HEK293
Assay: DAN assay of nitric oxide production (hiNOS)
Type: cell-based
Conditions: enzyme expressed in HEK293 cells transiently transfected with human iNOS
Text: The source of nitric oxide synthase (NOS) enzyme can be generated in several ways including induction of endogenous iNOS using cytokines and/or lipopolysaccharide (LPS) in various cell types known in the art. Alternatively, the gene encoding the enzyme can be cloned and the enzyme can be generated in cells via heterologous expression from a transient or stable expression plasmid with suitable features for protein expression as are known in the art. Enzymatic activity (nitric oxide production) is calcium independent for iNOS, while the constitutive NOS isoforms, nNOS and eNOS, become active with the addition of various cofactors added to cellular media or extract as are well known in the art. Enzymes specified in Table 1 were expressed in HEK293 cells transiently transfected with human iNOS.
A major metabolic pathway for nitric oxide is to nitrate and nitrite, which are stable metabolites within tissue culture, tissue, plasma, and urine (S Moncada, A Higgs, N Eng J Med 329, 2002 (1993)).
The level of nitrate or nitrite in the specimen can be quantified by any method known in the art which provides adequate sensitivity and reproducibility. A variety of protocols have also been described for detecting and quantifying nitrite and nitrate levels in biological fluids by ion chromatography (e.g., A Everett et al., J. Chromatogr. 706, 437 (1995); J M Monaghan et al., J. Chromatogr. 770, 143 (1997)), high-performance liquid chromatography (e.g., M Kelm et al., Cardiovasc. Res. 41, 765 (1999)), and capillary electrophoresis (MA Friedberg et al., J. Chromatogr. 781, 491 (1997)). For example, 2,3-diaminonaphthalene reacts with the nitrosonium cation that forms spontaneously from NO to form the fluorescent product 1H-naphthotriazole. Using 2,3-diaminonaphthalene (“DAN”), researchers have developed a rapid, quantitative fluorometric assay that can detect from 10 nM to 10 μM nitrite and is compatible with a multi-well microplate format. […] DAN reacts with nitrite ion and gives fluorescent naphthotriazole (MC Carré et al., Analusis 27, 835-838 (1999)). Table 1 provides the test results of various compounds of the subject invention using the DAN assay.
A specimen can be processed prior to determination of nitrate or nitrite as required by the quantification method, or in order to improve the results, or for the convenience of the investigator. For example, processing can involve centrifuging, filtering, or homogenizing the sample. If the sample is whole blood, the blood can be centrifuged to remove cells and the nitrate or nitrite assay performed on the plasma or serum fraction. If the sample is tissue, the tissue can be dispersed or homogenized by any method known in the art prior to determination of nitrate or nitrite. It may be preferable to remove cells and other debris by centrifugation or another method and to determine the nitrate or nitrite level using only the fluid portion of the sample, or the extracellular fluid fraction of the sample. The sample can also be preserved for later determination, for example by freezing of urine or plasma samples. When appropriate, additives may be introduced into the specimen to preserve or improve its characteristics for use in the nitrate or nitrite assay.
The “level” of nitrate, nitrite, or other NO-related product usually refers to the concentration (in moles per liter, micromoles per liter, or other suitable units) of nitrate or nitrite in the specimen, or in the fluid portion of the specimen. However, other units of measure can also be used to express the level of nitrate or nitrite. For example, an absolute amount (in micrograms, milligrams, nanomoles, moles, or other suitable units) can be used, particularly if the amount refers back to a constant amount (e.g., grams, kilograms, milliliters, liters, or other suitable units) of the specimens under consideration. A number of commercially available kits can be used. […]

T1 sequence (P35228 whole entry): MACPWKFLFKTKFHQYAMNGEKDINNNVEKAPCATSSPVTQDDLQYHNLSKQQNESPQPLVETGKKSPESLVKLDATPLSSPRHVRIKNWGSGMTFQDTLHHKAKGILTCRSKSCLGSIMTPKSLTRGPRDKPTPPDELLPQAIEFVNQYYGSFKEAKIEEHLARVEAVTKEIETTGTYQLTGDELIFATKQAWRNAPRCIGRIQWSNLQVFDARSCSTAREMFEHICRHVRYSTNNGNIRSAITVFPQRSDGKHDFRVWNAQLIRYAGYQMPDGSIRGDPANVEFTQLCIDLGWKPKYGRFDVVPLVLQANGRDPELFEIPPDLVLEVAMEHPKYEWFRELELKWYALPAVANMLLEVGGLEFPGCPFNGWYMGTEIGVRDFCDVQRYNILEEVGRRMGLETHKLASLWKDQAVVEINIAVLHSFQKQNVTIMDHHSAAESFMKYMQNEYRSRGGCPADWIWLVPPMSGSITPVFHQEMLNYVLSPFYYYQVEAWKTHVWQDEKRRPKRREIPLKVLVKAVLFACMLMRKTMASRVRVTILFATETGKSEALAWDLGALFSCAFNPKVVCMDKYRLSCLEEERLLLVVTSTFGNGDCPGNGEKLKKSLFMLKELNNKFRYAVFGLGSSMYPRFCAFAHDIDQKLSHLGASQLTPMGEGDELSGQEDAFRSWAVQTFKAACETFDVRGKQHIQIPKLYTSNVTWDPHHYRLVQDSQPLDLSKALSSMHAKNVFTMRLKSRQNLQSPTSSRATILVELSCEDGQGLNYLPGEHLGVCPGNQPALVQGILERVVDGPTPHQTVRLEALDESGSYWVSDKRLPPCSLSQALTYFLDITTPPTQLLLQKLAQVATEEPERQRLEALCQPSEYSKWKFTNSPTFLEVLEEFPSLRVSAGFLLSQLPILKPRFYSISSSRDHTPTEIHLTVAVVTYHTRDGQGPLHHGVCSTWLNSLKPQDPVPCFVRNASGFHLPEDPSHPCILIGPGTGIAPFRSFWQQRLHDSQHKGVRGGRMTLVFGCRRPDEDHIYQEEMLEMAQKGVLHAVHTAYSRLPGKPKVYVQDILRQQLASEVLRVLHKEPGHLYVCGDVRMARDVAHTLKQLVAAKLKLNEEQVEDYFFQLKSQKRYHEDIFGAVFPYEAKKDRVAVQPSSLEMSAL

Structure (SMILES) | EC50 [µM]
Cc1ncsc1C(=O)N(c1cccc(Cl)c1)C(C)c1cc(=O)[nH]c2c(F)cccc12 (racemic) [Example 113, N-(3-Chlorophenyl)-N-(1-(8-fluoro-2-oxo-1,2-dihydroquinolin-4-yl)ethyl)-4-methylthiazole-5-carboxamide] | ≤ 5
CC1CCCCN1c1nc2ccccc2n1Cc1cc(=O)[nH]c2c(F)c(F)ccc12 (racemic) [Example 206, 7,8-Difluoro-4-((2-(2-methylpiperidin-1-yl)-1H-benzo[d]imidazol-1-yl)methyl)quinolin-2(1H)-one] | ≤ 5
CCC(C)Cc1nc2ccccc2n1Cc1cc(=O)[nH]c2c(F)c(F)ccc12 (racemic) [Example 220, 7,8-Difluoro-4-((2-(2-methylbutyl)-1H-benzo[d]imidazol-1-yl)methyl)quinolin-2(1H)-one] | ≤ 5
CC(Cc1nc2ccccc2n1Cc1cc(=O)[nH]c2c(F)c(F)ccc12)C(F)(F)F (racemic) [Example 222, 7,8-Difluoro-4-((2-(3,3,3-trifluoro-2-methylpropyl)-1H-benzo[d]imidazol-1-yl)methyl)quinolin-2(1H)-one] | ≤ 5
CC1CC1c1nc2ccccc2n1Cc1cc(=O)[nH]c2c(F)c(F)ccc12 (racemic) [Example 238, 7,8-Difluoro-4-((2-(2-methylcyclopropyl)-1H-benzo[d]imidazol-1-yl)methyl)quinolin-2(1H)-one] | > 5
O=c1cc(Cn2c(C3CCCO3)nc3ccccc32)c2ccc(F)c(F)c2[nH]1 (racemic) [Example 250, 7,8-Difluoro-4-((2-(tetrahydrofuran-2-yl)-1H-benzo[d]imidazol-1-yl)methyl)quinolin-2(1H)-one] | ≤ 5
CC=C(C)c1nc2ccccc2n1Cc1cc(=O)[nH]c2c(F)c(F)ccc12 (single isomer, unassigned) [Example 210, (E or Z)-4-((2-(But-2-en-2-yl)-1H-benzo[d]imidazol-1-yl)methyl)-7,8-difluoroquinolin-2(1H)-one] | ≤ 5
O=C(c1ccco1)N(Cc1cc(=O)[nH]c2ccccc12)c1ccccc1 [Example 1, N-((2-Oxo-1,2-dihydroquinolin-4-yl)methyl)-N-phenylfuran-2-carboxamide] | ≤ 5
O=C(c1ccco1)N(Cc1cc(=O)[nH]c2ccccc12)c1ccc(Cl)cc1 [Example 2, N-(4-Chlorophenyl)-N-((2-oxo-1,2-dihydroquinolin-4-yl)methyl)furan-2-carboxamide] | > 5
CC(=O)N(Cc1cc(=O)[nH]c2ccccc12)c1ccccc1 [Example 3, N-[(2-Oxo-1,2-dihydroquinolin-4-yl)methyl]-N-phenylacetamide] | > 5
CCC(=O)N(Cc1cc(=O)[nH]c2ccccc12)c1ccccc1 [Example 4, N-((2-Oxo-1,2-dihydroquinolin-4-yl)methyl)-N-phenylpropionamide] | > 5
CC(C)C(=O)N(Cc1cc(=O)[nH]c2ccccc12)c1ccccc1 [Example 5, N-((2-Oxo-1,2-dihydroquinolin-4-yl)methyl)-N-phenylisobutyramide] | > 5
O=C(c1ccccc1)N(Cc1cc(=O)[nH]c2ccccc12)c1ccccc1 [Example 6, N-[(2-Oxo-1,2-dihydroquinolin-4-yl)methyl]-N-phenylbenzamide] | > 5
O=C(c1cccs1)N(Cc1cc(=O)[nH]c2ccccc12)c1ccccc1 [Example 7, N-[(2-Oxo-1,2-dihydroquinolin-4-yl)methyl]-N-phenylthiophene-2-carboxamide] | > 5
CN(Cc1cc(=O)[nH]c2ccccc12)C(=O)c1ccco1 [Example 8, N-Methyl-N-[(2-oxo-1,2-dihydroquinolin-4-yl)methyl]-2-furamide] | ≤ 5
CC(C)N(Cc1cc(=O)[nH]c2ccccc12)C(=O)c1ccco1 [Example 9, N-Isopropyl-N-[(2-oxo-1,2-dihydroquinolin-4-yl)methyl]-2-furamide] | ≤ 5
COc1ccc(N(Cc2cc(=O)[nH]c3ccccc23)C(=O)c2ccco2)cc1 [Example 10, N-(4-Methoxyphenyl)-N-[(2-oxo-1,2-dihydroquinolin-4-yl)methyl]-2-furamide] | ≤ 5

Structure (SMILES) | EC50 [µM]
Cc1ccc(N(Cc2cc(=O)[nH]c3ccccc23)C(=O)c2ccco2)cc1 [Example 11, N-(4-Methylphenyl)-N-[(2-oxo-1,2-dihydroquinolin-4-yl)methyl]-2-furamide] | ≤ 5
O=C(c1ccco1)N(Cc1cc(=O)[nH]c2ccccc12)c1ccncc1 [Example 13, N-[(2-Oxo-1,2-dihydroquinolin-4-yl)methyl]-N-pyridin-4-yl-2-furamide] | ≤ 5
O=C(c1ccco1)N(Cc1cc(=O)[nH]c2ccccc12)c1cccc(Cl)c1 [Example 14, N-(3-Chlorophenyl)-N-[(2-oxo-1,2-dihydroquinolin-4-yl)methyl]-2-furamide] | > 5
CN(Cc1cc(=O)[nH]c2ccccc12)c1ccccc1 [Example 15, 4-[(Methyl-phenyl-amino)-methyl]-1H-quinolin-2-one] | ≤ 5
Cc1cccc2c(CN(C(=O)c3ccco3)c3ccccc3)cc(=O)[nH]c12 [Example 16, N-((8-Methyl-2-oxo-1,2-dihydroquinolin-4-yl)methyl)-N-phenylfuran-2-carboxamide] | ≤ 5
O=C(c1ccco1)N(Cc1cc(=O)[nH]c2c(F)cccc12)c1ccccc1 [Example 17, N-((8-Fluoro-2-oxo-1,2-dihydroquinolin-4-yl)methyl)-N-phenylfuran-2-carboxamide] | > 5
O=C(c1ccco1)N(Cc1cc(=O)[nH]c2ccc(F)cc12)c1ccccc1 [Example 18, N-((6-Fluoro-2-oxo-1,2-dihydroquinolin-4-yl)methyl)-N-phenylfuran-2-carboxamide] | > 5
COc1ccc2[nH]c(=O)cc(CN(C(=O)c3ccco3)c3ccccc3)c2c1 [Example 19, N-((6-Methoxy-2-oxo-1,2-dihydroquinolin-4-yl)methyl)-N-phenylfuran-2-carboxamide] | ≤ 5
Cc1ccc2c(CN(C(=O)c3ccco3)c3ccccc3)cc(=O)[nH]c2c1 [Example 20, N-((7-Methyl-2-oxo-1,2-dihydroquinolin-4-yl)methyl)-N-phenylfuran-2-carboxamide] | ≤ 5
Cc1ccc2[nH]c(=O)cc(CN(C(=O)c3ccco3)c3ccccc3)c2c1 [Example 21, N-((6-Methyl-2-oxo-1,2-dihydroquinolin-4-yl)methyl)-N-phenylfuran-2-carboxamide] | ≤ 5
O=c1cc(CN(Cc2ccco2)c2ccccc2)c2ccccc2[nH]1 [Example 22, 4-(((Furan-2-ylmethyl)(phenyl)amino)methyl)quinolin-2(1H)-one] | ≤ 5
O=c1cc(CN(CCc2ccco2)c2ccccc2)c2ccccc2[nH]1 [Example 23, 4-(((2-(Furan-2-yl)ethyl)(phenyl)amino)methyl)quinolin-2(1H)-one] | ≤ 5
O=c1cc(CN(CCCc2ccco2)c2ccccc2)c2ccccc2[nH]1 [Example 24, 4-(((3-(Furan-2-yl)propyl)(phenyl)amino)rmethyl)quinolin-2(1H)-one] | ≤ 5
O=C(Cc1ccccc1)N(Cc1cc(=O)[nH]c2ccccc12)c1ccccc1 [Example 25, N-((2-Oxo-1,2-dihydroquinolin-4-yl)methyl)-N,2-diphenylacetamide] | ≤ 5
O=C(c1ccoc1)N(Cc1cc(=O)[nH]c2ccccc12)c1ccccc1 [Example 26, N-((2-Oxo-1,2-dihydroquinolin-4-yl)methyl)-N-phenylfuran-3-carboxamide] | > 5
O=C(c1cncs1)N(Cc1cc(=O)[nH]c2ccccc12)c1ccccc1 [Example 27, N-((2-Oxo-1,2-dihydroquinolin-4-yl)methyl)-N-phenylthiazole-5-carboxamide] | > 5
